# Structures can show the parent of a compound that is named as a salt.
# What was measured:
# male fatty Zucker rats = test: In vivo oral glucose tolerance test in the rat; details: 100 mg/kg/day oral gavage
# Experimental: 2. In vivo Oral Glucose Tolerance Test in the Rat
# The studies were carried out in individually housed male fatty Zucker rats (n=10 per group) weighing ca. 250-500 g. The rats were kept on a normal 12/12 h light/dark cycle (lights on 07.00) and they were allowed food (lab chow) and water ad libitum except for during experiments, when they were fasted overnight before the glucose challenge.
# The test substances of Formula I were suspended in 2% polyethylenglycol (=PEG) 1% carboxymethylcellulose and administered by oral gavage at a dose of 100 mg/kg/day; ⅓ of the dose (1 ml/kg, 33 mg/ml) was administered at 08.30-09.30 h; the remaining […] (2 ml/kg; 33 mg/ml) was administered between 16.00-17.00 h and the last ⅓ dose was given the following morning. Control animals received only the vehicle. On the day of the test, 45 min after the final dose of test substance/vehicle a blood sample (0 min) was taken (tail vein) immediately after which the rats received an oral glucose challenge (1.25 g/kg; 118 mg/ml). Further blood samples were taken at 30, 60, 90, 120 min after the glucose challenge. The second drop of blood of each sample was placed on a glucose test strip before this was placed in the glucose meter for determination of blood glucose level (Life Scan One Touch Ultra Blood® Glucose Meter and Life Scan One Touch Ultra® Test Strips; Life Scan Inc.; Milpitas, Calif. 95035). The remaining blood of each sample was spun and the plasma was frozen at −80° C. before analysis for insulin (1-2-3 Rat Insulin ELISA kit, Alpco Diagnostics).
# The values obtained were plotted and the AUC for test compounds and vehicle (for glucose and insulin) were determined after which the percent control AUC, percent control maximum value and % control baseline were estimated, to determine the influence of the test compound on the glucose tolerance.
# male C57Bl/6 mice = test: Acute in vivo food intake test in mice; details: high caloric diet, 100 mg/kg/day oral gavage in two halves
# Experimental: 3. Acute in vivo Food Intake Test in Mice
# The studies were carried out in individually housed male C57Bl/6 mice (n=8 per group). The mice were kept on an inverted 12/12 h light/dark cycle (lights on 22:00). They were allowed food (high caloric diet) and water ad libitum. Food intake and water consumption was measured daily. The test compound of Formula I was suspended in 1% methylcellulose in water and 2% (v/v) of Poloxamer 188 (Lutrol F68®) and administered by oral gavage at a dose of 100 mg/kg/day.
# In the test model described above, the test substances caused a decrease of the animals' 24 h food intake to the percentages of food intake when compared to control as given in table 3 below.
compound,measurement,setting,value
"NS(=O)(=O)N1CCN(c2ccccc2)CC1 [Example 2, N-Sulfamoyl-N′-phenylpiperazine hydrochloride]",Glucose Baseline,male fatty Zucker rats; 0 min sample before glucose challenge,82 % of control
same,Insulin Baseline,"male fatty Zucker rats; 0 min sample before glucose challenge, plasma",85 % of control
same,Glucose Maximal effect,male fatty Zucker rats; oral glucose challenge 1.25 g/kg,78 % of control
same,Glucose AUC,"male fatty Zucker rats; oral glucose challenge 1.25 g/kg, 0-120 min",84 % of control
same,Insulin AUC,"male fatty Zucker rats; oral glucose challenge 1.25 g/kg, 0-120 min, plasma",95 % of control
same,Insulin Maximal effect,"male fatty Zucker rats; oral glucose challenge 1.25 g/kg, plasma",95 % of control
same,24 h food intake,male C57Bl/6 mice,68 % of control
